Reference: paper PMC10052652 (Molecules, 2023)
Like-named read-outs stand apart in the source and are kept apart here.

Experiments:
[1] = DPPH radical scavenging assay
Description: DPPH• (1-1-diphenyl 2-picryl hydrazyl) assay
This method is based on the spectrophotometric assay using the stable radical, DPPH•, as a reagent. First, 20 µL of each sample (4 mg/mL) was mixed with 180 µL of 0.1 mM DPPH• in methanol, in plates, after an incubation of 25 min in the dark. Absorbance was measured at 517 nm. Ascorbic acid was used as the reference compound. The radical-scavenging activities of molecules, expressed as a percentage inhibition of DPPH•, were calculated according to the following formula: Inhibition (%) = [(A control − A sample)/A control] × 100 where A is the absorbance determined at 517 nm. The absorbance of the solvent and DPPH• radical without the molecule was measured as the control.

[2] = ABTS radical cation scavenging assay; conditions: for ABTS Assay %: at 100 µM
Description: ABTS (2,2′-azinobis-3-ethylbenzothiazoline-6-sulfonate) assay
The radical scavenging capacity of antioxidants for the ABTS radical cation was evaluated following this method: ABTS was prepared by adding 7 mM solution of ABTS at pH 7.4 (5 mM NaH2PO4, 5 mM Na2HPO4, and 154 mM NaCl) with 2.5 mM potassium persulfate. The mixture was stored at room temperature for 16 h in the dark before use and prepared […]. Once diluted with persulfate buffer, the absorbance of the mixture yielded an absorbance value of 0.70 ± 0.05 units at 734 nm. Then, 20 µL of each tested sample was mixed with fresh ABTS solution (180 µL), then the absorbance was measured 6 min after the initial mixing. Ascorbic acid was used as a standard. The capacity of free radical scavenging was expressed as a percentage of the inhibition values. The percentage of inhibition is calculated using the same expression employed in the DPPH assay.

[3] = target: T1, acetylcholinesterase (AChE) (Homo sapiens, UniProt P22303); assay: biochemical
Description: The enzymatic activity was assessed via a modified colorimetric Ellman′s method. First, 50 µL of Tris-HCl buffer (pH 8), 25µL of a buffer solution of the sample (50 µg/mL), and 25 µL of an acetylcholinesterase (AChE) enzyme solution containing 2.8 U/mL were mixed. A reaction was then initiated via the addition of 125 µL of 3 mM […]. After incubation for 15 min at 25 °C, 25 µL of a solution of iodide acetylthiocholine15 mM was added to a 96-well microplate. […] Inhibition (%) was calculated in the following way: Inhibition (%) = [(A control − A sample)/A control] × 100, where (A sample) is the absorbance of the molecule containing the reaction and (A control) is the absorbance of the reaction control. Tests were carried out in triplicate.

[4] = target: T2, superoxide dismutase (SOD) (Homo sapiens, UniProt P00441); assay: biochemical; conditions: read-out: Anti SOD IC50
Description: Pyrogallol auto-oxidation due to oxygen in the air can be inhibited by an enzyme that is naturally present in the body: superoxide dismutase (SOD). Furthermore, variations in the pyrogallol auto-oxidation rate in the presence of SOD were evaluated. Tests were carried out in triplicate. The objective was to find an inhibitor of the auto-oxidation of pyrogallol in the presence of a SOD enzyme solution. Samples were tested at a concentration of 50 µg/mL, followed by incubation for 4 min at 25 °C. […] The self-oxidation of pyrogallol was evaluated in the absence of the enzyme. For this, 30 µL of pyrogallol was added to 120 µL of tris buffer (in place of the SOD) (pH 8.5), then followed by the same steps of incubating a positive control (without the molecule); this was performed in the presence of 5% of DMSO to evaluate the percentage of SOD inhibition activity on the auto-oxidation of pyrogallol.

xanthine oxidase (XOD) [5] = target: T3, xanthine oxidase (XOD) (Homo sapiens, UniProt P47989); assay: biochemical; conditions: read-out: Anti XOD IC50
Description: Anti-xanthine oxidase activity was assayed spectrophotometrically under aerobic conditions. First, 50 µL (50 µg/mL) of samples were added to 60 µL of phosphate buffer (pH 7.5) and 30 µL of xanthine oxidase enzyme solution (0.01 units/mL in phosphate buffer; pH 7.5). After pre-incubation at 25 °C for 15 min, the reaction was initiated by the addition of 60 µL of xanthine substrate solution (prepared in the same buffer). The assay mixture was incubated at 25 °C for 5 min. […] The assay was performed in triplicate. […] Tests were carried out in triplicate.

HCT116 cells = assay: Cytotoxic activity, MTT assay, HCT116; type: cell-based, human; conditions: Homo sapiens, HCT-116, 72 h, read-out: IC50 HCT116, MTT, 72 h
Description: (§1) The cancer cell lines used in this study were HCT116 (colorectal carcinoma), IGROV1 (ovarian cancer), OVCAR3 (ovarian cancer), and MCF7 (mammary gland/breast cancer). […] Cell lines were maintained in culture and were incubated at 37 °C in an incubator with 5% CO2 in a humidified atmosphere. All tests were established at 80% of confluence, and viability was estimated with a trypan blue exclusion assay.
(§2) The cytotoxic activities of molecules against cancer cell lines were evaluated using an MTT assay. The MTT colorimetric assay was performed using 96-well plates. Cells were seeded in a 96-well plate, at a concentration of 10 × 10^3 cells/well for HCT116 and 12 × 10^3 cells/well for MCF7, IGROV1, and OVAR. Adherent cells were dispatched and incubated at 37 °C overnight in a 5% CO2-enriched atmosphere. […] After that, the medium was removed, and cells were treated with 50 µL of 3-(4,5-dimethylthazolk-2-yl)-2,5-diphenyl tetrazolium bromide (MTT) solution (3 mg/mL in PBS) at 37 °C for 20 to 40 min. To dissolve the […], we added 80 µL of 100% DMSO. Optical density was measured at 540 nm. All tests were established in triplicate. […]

MCF7 cells = assay: Cytotoxic activity, MTT assay, MCF7; type: cell-based, human
Description: Optical density was measured at 540 nm. All tests were established in triplicate.

OVCAR-3 cells = assay: Cytotoxic activity, MTT assay, OVCAR-3; type: cell-based; conditions: Homo sapiens, OVCAR-3, 72 h, read-out: IC50 OVCAR-3
Description: as §1, §2

SKOV-3 cells = assay: Cytotoxic activity, MTT assay, SKOV-3; type: cell-based, human
[6] = target: T1, acetylcholinesterase (AChE); type: biochemical; conditions: at 100 µM
[7] = target: T2, superoxide dismutase (SOD); type: biochemical; conditions: at 100 µM
α-amylase = target: T4, α-amylase (Homo sapiens, UniProt P04746); assay: Anti-α-amylase activity (starch/DNS); conditions: for Anti α-Amylase %: at 100 µM
T4 sequence (P04746 16-511): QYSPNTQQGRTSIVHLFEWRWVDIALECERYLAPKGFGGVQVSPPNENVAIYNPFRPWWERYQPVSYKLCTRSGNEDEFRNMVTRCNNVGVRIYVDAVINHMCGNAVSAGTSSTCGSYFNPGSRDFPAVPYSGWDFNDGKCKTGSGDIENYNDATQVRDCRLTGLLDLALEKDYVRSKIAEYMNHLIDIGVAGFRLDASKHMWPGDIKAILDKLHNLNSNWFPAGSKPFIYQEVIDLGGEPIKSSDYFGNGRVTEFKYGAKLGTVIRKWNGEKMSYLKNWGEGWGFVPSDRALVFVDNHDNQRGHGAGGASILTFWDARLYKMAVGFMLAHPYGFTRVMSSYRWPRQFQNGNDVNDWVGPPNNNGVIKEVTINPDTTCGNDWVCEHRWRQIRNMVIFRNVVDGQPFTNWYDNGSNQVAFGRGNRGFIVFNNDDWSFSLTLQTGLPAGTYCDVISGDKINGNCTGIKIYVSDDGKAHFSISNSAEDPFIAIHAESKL
Description: The α-amylase inhibitory activity (%) value was defined as the percentage decrease in the maltose production rate over the control. […] After 15 min, this mixture was removed from the water bath and diluted with 900 µL of distilled water. The anti-α-amylase activity was determined by measuring the absorbance at 540 nm. Blank incubations were determined as the absorbance produced by samples where the enzyme was replaced with a buffer solution. […] The IC50 values were calculated from the mean values of the percentage of α--amylase inhibition data, determined in triplicate.

xanthine oxidase (XOD) [8] = target: T3, xanthine oxidase (XOD); type: biochemical; conditions: at 100 µM
[9] = Homo sapiens, SK-OV-3, 72 h, read-out: IC50 SKOV-3, MTT, 72 h
[10] = read-out: IC50 SKOV-3, MTT, 72 h

T1 sequence (P22303 32-614, species assumed): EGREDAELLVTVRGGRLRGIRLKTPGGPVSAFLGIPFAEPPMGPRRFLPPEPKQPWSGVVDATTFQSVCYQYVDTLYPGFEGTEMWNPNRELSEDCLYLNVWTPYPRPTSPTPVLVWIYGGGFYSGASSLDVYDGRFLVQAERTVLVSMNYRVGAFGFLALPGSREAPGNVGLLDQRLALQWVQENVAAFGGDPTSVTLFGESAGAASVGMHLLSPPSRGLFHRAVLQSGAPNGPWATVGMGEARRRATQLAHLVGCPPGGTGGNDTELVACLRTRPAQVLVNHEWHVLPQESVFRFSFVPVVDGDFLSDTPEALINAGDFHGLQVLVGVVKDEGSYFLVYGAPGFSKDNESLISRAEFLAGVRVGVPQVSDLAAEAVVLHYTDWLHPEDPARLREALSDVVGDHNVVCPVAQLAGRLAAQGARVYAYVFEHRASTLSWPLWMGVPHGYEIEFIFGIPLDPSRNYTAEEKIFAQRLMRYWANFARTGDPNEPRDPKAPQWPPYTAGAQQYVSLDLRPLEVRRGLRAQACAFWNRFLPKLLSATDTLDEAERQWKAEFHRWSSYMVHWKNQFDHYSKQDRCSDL
T3 sequence (P47989 whole entry, species assumed): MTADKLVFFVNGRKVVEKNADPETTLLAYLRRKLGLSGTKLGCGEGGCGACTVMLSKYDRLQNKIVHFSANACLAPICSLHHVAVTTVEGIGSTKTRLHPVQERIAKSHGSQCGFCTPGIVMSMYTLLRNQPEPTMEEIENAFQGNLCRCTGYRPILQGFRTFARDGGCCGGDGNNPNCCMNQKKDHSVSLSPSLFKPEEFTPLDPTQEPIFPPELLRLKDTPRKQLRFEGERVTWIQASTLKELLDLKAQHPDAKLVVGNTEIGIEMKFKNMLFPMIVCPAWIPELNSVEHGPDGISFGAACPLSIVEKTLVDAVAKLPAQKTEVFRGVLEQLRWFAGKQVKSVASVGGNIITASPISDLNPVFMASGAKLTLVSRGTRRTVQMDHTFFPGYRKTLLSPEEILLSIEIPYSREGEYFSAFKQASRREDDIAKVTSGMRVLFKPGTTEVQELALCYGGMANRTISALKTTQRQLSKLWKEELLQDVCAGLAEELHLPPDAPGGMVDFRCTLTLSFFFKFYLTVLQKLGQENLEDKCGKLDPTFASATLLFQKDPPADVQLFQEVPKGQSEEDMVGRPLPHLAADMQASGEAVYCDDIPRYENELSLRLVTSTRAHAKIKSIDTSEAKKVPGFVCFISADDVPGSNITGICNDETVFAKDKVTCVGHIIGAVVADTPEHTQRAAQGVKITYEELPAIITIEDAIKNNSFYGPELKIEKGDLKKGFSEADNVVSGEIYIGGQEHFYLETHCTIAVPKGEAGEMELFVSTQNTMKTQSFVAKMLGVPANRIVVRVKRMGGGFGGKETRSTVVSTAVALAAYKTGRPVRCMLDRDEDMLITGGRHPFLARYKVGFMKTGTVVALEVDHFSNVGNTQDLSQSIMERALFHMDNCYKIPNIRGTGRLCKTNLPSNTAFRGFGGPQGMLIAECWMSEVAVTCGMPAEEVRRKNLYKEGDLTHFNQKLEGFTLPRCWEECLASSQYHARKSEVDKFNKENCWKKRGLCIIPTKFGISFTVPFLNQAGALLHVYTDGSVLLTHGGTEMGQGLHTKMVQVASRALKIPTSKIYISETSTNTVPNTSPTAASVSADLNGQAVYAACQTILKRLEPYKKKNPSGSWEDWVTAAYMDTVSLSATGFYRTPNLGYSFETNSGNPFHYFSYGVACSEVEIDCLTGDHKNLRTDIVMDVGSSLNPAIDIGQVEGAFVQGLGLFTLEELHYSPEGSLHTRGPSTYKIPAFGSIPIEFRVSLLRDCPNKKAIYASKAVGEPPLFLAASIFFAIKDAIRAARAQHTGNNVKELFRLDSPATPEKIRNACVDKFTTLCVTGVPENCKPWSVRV
T2 sequence (P00441 whole entry): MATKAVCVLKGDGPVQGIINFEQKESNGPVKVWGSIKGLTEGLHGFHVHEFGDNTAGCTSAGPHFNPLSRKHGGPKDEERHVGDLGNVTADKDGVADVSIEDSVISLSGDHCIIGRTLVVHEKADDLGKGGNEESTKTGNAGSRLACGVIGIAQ

Compound | IC50 [1] [µM] | IC50 [2] [µM] | IC50 [3] [µM] | IC50 [4] [µM] | IC50 (xanthine oxidase (XOD) [5]) [µM] | IC50 (HCT116 cells) [µM] | IC50 (MCF7 cells; Homo sapiens, MCF7, 72 h) [µM] | IC50 (OVCAR-3 cells) [µM] | IC50 (SKOV-3 cells; [9]) [µM] | Anti ACHE % [6] [%] | Anti SOD % [7] [%] | IC50 (α-amylase) [µM] | Anti α-Amylase % (α-amylase) [%] | ABTS Assay % [2] [%] | IC50 ([3]; read-out: Anti ACHE IC50) [µM] | Anti XOD % (xanthine oxidase (XOD) [8]) [%] | IC50 (SKOV-3 cells; [10]) [µM] | IC50 (MCF7 cells; 72 h) [µM]
CC1OC(OCC2OC(Oc3c(-c4ccc(OCCO)c(OCCO)c4)oc4cc(OCCO)cc(O)c4c3=O)C(O)C(O)C2O)C(O)C(O)C1O (centres unmarked) [Molecule M6, trihydroxyethylrutin] | > 100 | 24.5 ± 0.1 | > 100 | > 50 | > 100 | > 50 | > 50 | > 50 | > 50 | 33.7 ± 3.7 | 53.7 ± 2.1 | > 100 | 49.4 ± 5.1 | – | – | – | – | –
O=c1cc(-c2cccc(O)c2)oc2c1ccc1ccccc12 [Molecule M10, 3′-hydroxy-a-naphthoflavone] | > 100 | > 100 | – | > 100 | > 50 | > 50 | > 50 | > 50 | > 50 | 54.7 ± 1.9 | 39.4 ± 1.9 | 2.3 ± 0.1 | 69.4 ± 1.6 | 11.0 ± 1.0 | > 50 | 58.8 ± 0.3 | – | –
COc1cccc(-c2cc(=O)c3c(O)cccc3o2)c1 [Molecule M11, 5-hydroxy-3′-methoxyflavone] | > 100 | > 100 | – | > 100 | > 100 | > 50 | > 100 | > 50 | > 100 | 52.6 ± 4.2 | 9.4 ± 3.1 | 8.3 ± 0.2 | 124.8 ± 15.3 | 17.7 ± 0.7 | > 50 | – | > 50 | –
COc1cc(O)c2c(=O)cc(-c3ccc(O)cc3)oc2c1 [Molecule M12, 4′,5-dihydroxy-7-methoxyflavone] | > 100 | > 100 | > 50 | > 100 | 1.2 ± 0.1 | 38.5 ± 1.2 | > 50 | 47 ± 1.4 | 44.7 ± 1.2 | 51.0 ± 0.3 | 42.1 ± 5.3 | 9 ± 0.1 | 111.7 ± 0.8 | 30.3 ± 0.6 | – | 58.2 ± 3.1 | – | –
O=c1cc(-c2cccc(O)c2)oc2cccc(O)c12 [Molecule M14, 5,3′-dihydroxyflavone] | > 100 | > 100 | – | > 100 | 2 ± 0.1 | – | > 100 | > 50 | > 100 | 55.0 ± 1.9 | 5.7 ± 2.5 | 6.7 ± 0.9 | 109.6 ± 1.7 | 16.9 ± 0.3 | > 50 | 71.3 ± 4.7 | > 50 | > 50
Cc1cccc(COc2cc(O)c3c(=O)cc(-c4ccccc4)oc3c2)c1 [Molecule M15, 5-hydroxy-7-((3-methylbenzyl)oxy)-2-phenyl-4h-chromen-4-one] | > 100 | > 100 | – | > 100 | > 100 | > 50 | > 50 | 45.6 ± 1.4 | > 50 | 55.3 ± 2.7 | 26.5 ± 3.3 | > 100 | 46.2 ± 4.4 | 25.6 ± 0.7 | > 50 | – | – | –
Cc1ccc2oc(-c3cccc(O)c3)cc(=O)c2c1 [Molecule M16, 3′-hydroxy-6-methylflavone] | > 100 | > 50 | – | > 100 | 2 ± 0.1 | > 100 | > 100 | > 50 | 42.1 ± 1.5 | 59.1 ± 1.5 | 27.3 ± 3.2 | > 100 | – | – | > 50 | 83.5 ± 3.8 | – | –
Cc1ccc(-c2cc(=O)c3cc(O)ccc3o2)cc1 [Molecule M17, 6-hydroxy-4′-methylflavone] | > 100 | > 50 | – | > 50 | 0.8 ± 0.1 | 40.4 ± 1.2 | > 50 | > 50 | 43.8 ± 0.9 | 50.8 ± 4.1 | 80.9 ± 0.2 | > 100 | – | – | > 50 | 67.7 ± 2.1 | – | –
O=C1O[C@H]([C@@H](O)CO)C(O)=C1O [Vitamin C, Ascorbic acid, reference compound] | 2.3 ± 0.2 | 2.2 ± 0.2 | – | – | – | – | – | – | – | – | – | – | – | – | – | – | – | –
